Laboratory results from the supplement of paper PMC10627819.

Key:
[1] = tested on: S. pneumoniae D39V; assay: fitness (endpoint OD595 vs no drug) (fraction); higher = more growth
How it was run: (§1)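 Background-subtracted growth curves were the basis for fitness, taken as the optical density at entry into stationary phase over the robust mean of no-drug control wells. A cap of 1 was applied. The curves came from OD595 readings every 30 min for 14 h at 37 °C, in 384-well plates seeded at OD595 0.01 with 30 µl, or 55 µl for S. pneumoniae.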

[2] = tested on: B. subtilis 168; assay: as above
How it was run: as §1

[3] = tested on: S. aureus DSM 20231; assay: as above
How it was run: as §1

[4] = tested on: S. aureus Newman; assay: Bliss interaction score (quartile over a dose matrix) (fitness difference); higher = more antagonism (negative = synergy)
How it was run: (§2)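 Growth in each well was taken as OD595 at entry into stationary phase. Dividing by the plate's robust no-drug mean and capping at 1 gave fitness, and single-drug fitness was inferred from the combination data. The Bliss score, observed minus product-expected fitness, is summarised by quartiles over technical, biological and donor/recipient replicates.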

[5] = tested on: S. pneumoniae D39V; assay: as above
How it was run: as §2

[6] = tested on: B. subtilis 168; assay: as above
How it was run: as §2

[7] = tested on: S. aureus DSM 20231; assay: as above
How it was run: as §2
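For Bliss interaction score (quartile over a dose matrix) in this document: first quartile when negative (synergy) and third quartile when positive (antagonism).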

CCC[C@@H]1C[C@@H](C(=O)N[C@@H]([C@H]2O[C@H](SC)[C@H](O)[C@@H](O)[C@H]2O)[C@@H](C)O)N(C)C1 [Lincomycin] + CN(N=O)C(=O)N[C@@H](C=O)[C@@H](O)[C@H](O)[C@H](O)CO [Streptozotocin]
fitness, [1], one replicate
Settings	first compound 0.2 µg/mL	first compound 0.4 µg/mL	first compound 0.8 µg/mL
partner 1.2 µg/mL	0.767	0.683	0.181
partner 2.4 µg/mL	0.734	0.683	0.273
partner 4.8 µg/mL	0.639	0.553	0

fitness
Settings	first compound 0.1 µg/mL	first compound 0.2 µg/mL	first compound 0.215 µg/mL	first compound 0.4 µg/mL	first compound 0.43 µg/mL	first compound 0.86 µg/mL
[1], partner 1.2 µg/mL	–	–	0.752	–	0.664	0.148
[1], partner 2.4 µg/mL	–	–	0.754	–	0.661	0.261
[1], partner 4.8 µg/mL	–	–	0.793	–	0.705	0.237
[2], partner 0.15 µg/mL	0.957	0.99	–	0.994	–	–
[2], partner 0.3 µg/mL	0.966	0.93	–	0.997	–	–
[2], partner 0.6 µg/mL	0.956	0.953	–	0.99	–	–
[3], partner 0.15 µg/mL	0.804	0.635	–	0.282	–	–
[3], partner 0.3 µg/mL	0.796	0.611	–	0.267	–	–
[3], partner 0.6 µg/mL	0.708	0.565	–	0.177	–	–

Settings	Bliss interaction score
[4]	0.125
[5]	-0.138
[6]	-0.0171
[7]	0.0558

CCC[C@@H]1C[C@@H](C(=O)N[C@@H]([C@H]2O[C@H](SC)[C@H](O)[C@@H](O)[C@H]2O)[C@@H](C)O)N(C)C1 [Lincomycin] + CN[C@@H]1[C@H](O)[C@H](NC)[C@H]2O[C@@]3(O)C(=O)C[C@@H](C)O[C@H]3O[C@@H]2[C@H]1O [Spectinomycin]
fitness, one replicate
Settings	first compound 0.1 µg/mL	first compound 0.2 µg/mL	first compound 0.4 µg/mL	first compound 0.8 µg/mL
[1], partner 4 µg/mL	–	0.777	0.659	0.412
[1], partner 8 µg/mL	–	0.752	0.63	0.35
[3], partner 32 µg/mL	0.377	0.176	0.0758	–
[3], partner 64 µg/mL	0.0561	0.042	0.0347	–

fitness
Settings	partner 2 µg/mL	partner 4 µg/mL	partner 8 µg/mL	partner 16 µg/mL
[1], first compound 0.215 µg/mL	–	0.777	0.787	0.721
[1], first compound 0.43 µg/mL	–	0.688	0.713	0.616
[1], first compound 0.86 µg/mL	–	0.268	0.286	0.158
[2], first compound 0.1 µg/mL	0.923	0.923	0.849	–
[2], first compound 0.2 µg/mL	0.937	0.929	0.847	–
[2], first compound 0.4 µg/mL	0.907	0.859	0.861	–
[3], first compound 0.1 µg/mL	–	0.819	0.732	0.566
[3], first compound 0.2 µg/mL	–	0.581	0.54	0.351
[3], first compound 0.4 µg/mL	–	–	–	0.122

Settings	Bliss interaction score
[4]	-0.195
[5]	-0.0914
[6]	-0.0786
[7]	-0.175

CCC[C@@H]1C[C@@H](C(=O)N[C@@H]([C@H]2O[C@H](SC)[C@H](O)[C@@H](O)[C@H]2O)[C@@H](C)O)N(C)C1 [Lincomycin] + COc1c(N2C[C@@H]3CCCN[C@@H]3C2)c(F)cc2c(=O)c(C(=O)O)cn(C3CC3)c12 [Moxifloxacin]
Settings	fitness
[1], first compound 0.2 µg/mL, partner 0.005 µg/mL	0.749
[1], first compound 0.2 µg/mL, partner 0.01 µg/mL	0.829
[1], first compound 0.2 µg/mL, partner 0.02 µg/mL	0.757
[1], first compound 0.215 µg/mL, partner 0.0037 µg/mL	0.742
[1], first compound 0.215 µg/mL, partner 0.0075 µg/mL	0.769
[1], first compound 0.215 µg/mL, partner 0.015 µg/mL	0.751
[1], first compound 0.4 µg/mL, partner 0.005 µg/mL	0.675
[1], first compound 0.4 µg/mL, partner 0.01 µg/mL	0.704
[1], first compound 0.4 µg/mL, partner 0.02 µg/mL	0.653
[1], first compound 0.43 µg/mL, partner 0.0037 µg/mL	0.629
[1], first compound 0.43 µg/mL, partner 0.0075 µg/mL	0.651
[1], first compound 0.43 µg/mL, partner 0.015 µg/mL	0.677
[1], first compound 0.86 µg/mL, partner 0.0037 µg/mL	0.34
[1], first compound 0.86 µg/mL, partner 0.0075 µg/mL	0.339
[1], first compound 0.86 µg/mL, partner 0.015 µg/mL	0.297
[2], first compound 0.1 µg/mL, partner 2 µg/mL	0.0333
[2], first compound 0.1 µg/mL, partner 4 µg/mL	0.0228
[2], first compound 0.1 µg/mL, partner 8 µg/mL	0.0229
[2], first compound 0.2 µg/mL, partner 2 µg/mL	0.0297
[2], first compound 0.2 µg/mL, partner 4 µg/mL	0.0322
[2], first compound 0.2 µg/mL, partner 8 µg/mL	0.0239
[2], first compound 0.4 µg/mL, partner 0.0312 µg/mL	0.0344
[2], first compound 0.4 µg/mL, partner 0.0625 µg/mL	0.036
[2], first compound 0.4 µg/mL, partner 0.125 µg/mL	0.0478
[2], first compound 0.4 µg/mL, partner 2 µg/mL	0.0261
[2], first compound 0.4 µg/mL, partner 4 µg/mL	0.0257
[2], first compound 0.4 µg/mL, partner 8 µg/mL	0.0306
[2], first compound 0.8 µg/mL, partner 0.0312 µg/mL	0.0429
[2], first compound 0.8 µg/mL, partner 0.0625 µg/mL	0.049
[2], first compound 0.8 µg/mL, partner 0.125 µg/mL	0.0451
[2], first compound 1.6 µg/mL, partner 0.0312 µg/mL	0.0535
[2], first compound 1.6 µg/mL, partner 0.0625 µg/mL	0.0507
[2], first compound 1.6 µg/mL, partner 0.125 µg/mL	0.0559
[3], first compound 0.1 µg/mL, partner 0.0075 µg/mL	0.823
[3], first compound 0.1 µg/mL, partner 0.015 µg/mL	0.765
[3], first compound 0.1 µg/mL, partner 0.03 µg/mL	0.671
[3], first compound 0.2 µg/mL, partner 0.0075 µg/mL	0.737
[3], first compound 0.2 µg/mL, partner 0.015 µg/mL	0.715
[3], first compound 0.2 µg/mL, partner 0.03 µg/mL	0.689
[3], first compound 0.4 µg/mL, partner 0.0075 µg/mL	0.301
[3], first compound 0.4 µg/mL, partner 0.015 µg/mL	0.278
[3], first compound 0.4 µg/mL, partner 0.03 µg/mL	0.359

fitness, one replicate
Settings	first compound 0.1 µg/mL	first compound 0.2 µg/mL	first compound 0.4 µg/mL
[2], partner 0.0312 µg/mL	0.0564	0.039	–
[2], partner 0.0625 µg/mL	0.0916	0.06	–
[2], partner 0.125 µg/mL	0.0846	0.0751	–
[3], partner 0.06 µg/mL	0.661	0.677	0.562
[3], partner 0.12 µg/mL	0.498	0.527	0.448

Settings	Bliss interaction score
[4]	0.0565
[5]	0.0862
[6]	-0.0143
[7]	0.124

CCC[C@@H]1C[C@@H](C(=O)N[C@@H]([C@H]2O[C@H](SC)[C@H](O)[C@@H](O)[C@H]2O)[C@@H](C)O)N(C)C1 [Lincomycin] + COc1ccc(C[C@H](N)C(=O)N[C@H]2[C@@H](O)[C@H](n3cnc4c(N(C)C)ncnc43)O[C@@H]2CO)cc1 [Puromycin]
fitness, one replicate
Settings	first compound 0.1 µg/mL	first compound 0.2 µg/mL	first compound 0.4 µg/mL	first compound 0.8 µg/mL
[1], partner 1 µg/mL	–	0.64	0.382	0.0776
[1], partner 2 µg/mL	–	0.621	0.325	0.127
[1], partner 4 µg/mL	–	0.275	0.083	0.0925
[3], partner 3.12 µg/mL	0.822	0.489	0.207	–
[3], partner 6.24 µg/mL	0.282	0.217	0.093	–

fitness
Settings	first compound 0.1 µg/mL	first compound 0.2 µg/mL	first compound 0.215 µg/mL	first compound 0.4 µg/mL	first compound 0.43 µg/mL	first compound 0.86 µg/mL
[1], partner 1 µg/mL	–	–	0.838	–	0.756	0.436
[1], partner 2 µg/mL	–	–	0.792	–	0.709	0.3
[1], partner 4 µg/mL	–	–	0.743	–	0.536	0.251
[2], partner 0.39 µg/mL	0.867	0.869	–	0.854	–	–
[2], partner 0.78 µg/mL	0.889	0.883	–	0.91	–	–
[2], partner 1.56 µg/mL	0.873	0.866	–	0.843	–	–
[3], partner 0.39 µg/mL	0.877	0.806	–	0.304	–	–
[3], partner 0.78 µg/mL	0.935	0.776	–	0.303	–	–
[3], partner 1.56 µg/mL	0.906	0.759	–	0.253	–	–

Settings	Bliss interaction score
[4]	0.0533
[5]	-0.157
[6]	-0.0436
[7]	-0.0648
